Earlier results as cited in patent publication US8865753B2, “Compounds as cannabinoid receptor ligands” (priority 2007, dated 2014).

Tests used:
[1] = test system: animal models; conditions: animal models of acute thermal pain, persistent pain, inflammatory pain and neuropathic pain
[2] = test system: rodent; conditions: rodent models of neuropathic, incisional, and both chronic and acute inflammatory pain
[3] = test system: rat; conditions: rat formalin model of persistent pain; Hanus et al. 1999
[4] = test system: microglial; conditions: in vitro; Ramirez et al. 2005
[5] = test system: apolipoprotein E knockout mice; conditions: Steffens et al. 2005
[6] = test system: osteoclast; conditions: Ralston et al. 2005
[7] = test system: mice; conditions: model for post-menopausal osteoporosis, Ralston et al. 2005

**Q.** With `CN1CCCCC1Cn1cc(C(=O)c2cc([N+](=O)[O-])ccc2I)c2ccccc21` (stereo not drawn) [AM-1241] as the compound, how does the analgesic efficacy [1] read?
**A.** robust analgesic efficacy

**Q.** With `COc1ccc2c(c1)c(CCN1CCOCC1)c(C)n2C(=O)c1cccc(Cl)c1Cl` [GW405833] as the compound, how does the “efficacy in pain models” value [2] read?
**A.** efficacious

**Q.** With `CCCCCCC(C)(C)c1cc(OC)c([C@@H]2C=C(CO)[C@@H]3C[C@H]2C3(C)C)c(OC)c1` [HU-308] as the compound, how does the antinociceptive response [3] read?
**A.** elicits an antinociceptive response

**Q.** With `CCCC(C)(C)c1ccc2c(c1)OC(C)(C)[C@@H]1CC=C(C)C[C@@H]21` [JWH-133] as the compound, how does the “β-amyloid-induced microglial activation and neurotoxicity” value [4] read?
**A.** abrogated

**Q.** Which “progression of atherosclerotic lesions” value ([5]; low doses) does the source give for (−)-Δ^9-Tetrahydrocannabinol [THC] here?
**A.** slowed the progression of atherosclerotic lesions

**Q.** What does the source list for SR144528?
**A.** blockade of the effects of JWH-133 [4]: blocked; osteoclast activity [6]: inhibit osteoclast activity; inhibition of the effects of THC on atherosclerotic lesions [5]: inhibited; ovariectomy-induced bone loss [7]: reverse ovariectomy-induced bone loss
